From patent US11504075B2, “System, methods, and devices for calculating hypoxic fraction and equilibration rate of small molecular weight tracers using dynamic imaging” (UNIVERSITY HEALTH NETWORK, priority 2017, dated 2022)
Values joined by “and” are separate entries in the source; they are usually repeats but may differ in a detail not shown here. Equal values may be shown once.

Tests used:
[1] = tested on: pancreatic ductal adenocarcinoma tumours; experiment: Dynamic FAZA-PET imaging with two-tissue compartment model analysis in patients with pancreatic ductal adenocarcinoma; format: in vivo, human (patients)
Excerpt: In an example experiment, the pharmacokinetics of FAZA in twenty patients with pancreatic ductal adenocarcinoma (PDAC) were modeled, applying principles of diffusive equilibration to interpret transport data calculated from a standard two-tissue compartment model.
Data was taken from twenty patients with biopsy-confirmed pancreatic ductal adenocarcinoma and FAZA-PET scans. Dynamic PET imaging scans were acquired over one hour following injection of FAZA. The one hour time-activity curves (TAC1) were each binned into thirty-four frames: twelve ten-second frames, followed by eight thirty-second frames, followed by seven two-minute frames, followed by seven five-minute frames. Patients returned for a static PET scan at two hours. CT scans used for co-registration were taken at the beginning of the dynamic and static PET scans.
PET activity data was obtained for regions of interest (ROIs) contoured using co-registered CT images. Tumour ROIs were contoured by a radiologist using the CT scan at two hours. This was co-registered manually to the initial CT scan and the two CT ROI sets were co-registered to the dynamic and static PET scans. In order to minimize effects resulting from high liver uptake of FAZA, aorta ROIs were contoured from the same range of PET/CT slices (along the cranial-caudal axis) as the tumour ROIs. At the level of the pancreas, the aorta is between 1.5 and 2 cm in diameter; to minimize partial volume effects, ROIs in the aorta were restricted to 0.75 cm in diameter and combined so that at least twenty-five PET voxels (3.9×3.9×3.3 mm^3 each) were imaged.
Dynamic PET TACs of FAZA were analyzed using the two-tissue compartment model:
Here, the concentration of tracer in the extravascular space of an imaged region has been partitioned into an unbound, diffusing component Cd as well as a component Cb that is bound by hypoxia. CIn is the “input” function, which was taken to be the imaged tracer concentration in the aorta, as described above. As noted earlier, k1 and k2 are the vascular influx and efflux coefficients and k3 is the tracer trapping rate. The total tracer concentration in an imaged region is C(t)=vbCIn(t)+(1−vb)[Cd(t)+Cb(t)], (5) where vb is the volume fraction occupied by blood in the region of interest. The above model was fitted to both the one-hour TACs (TAC1) as well as the combined two-hour TAC (TAC2) comprising the one-hour TACs plus static scans at two hours (in part to assess co-registration errors, which should be greater for TAC2). Coefficients (vb, k1, k2, and k3) were determined by minimizing
[formula] where Cmodel(ti) are the model activity values [Eqs. (3)-(5)] and Cdata(ti) are the measured values acquired during the N discrete time frames; N=34 for TAC1 and N=35 for TAC2. […] Equation 6 can be minimized with Cmodel(ti) calculated using trapezoidal integration.
An important tissue transport quantity is the distribution volume:
It represents the volume fraction of an imaged ROI in which tracer initially fills; i.e., rapidly equilibrates in. Patlak's formula,
To account for the unexpected correlations between k3 and vd, a model (shown schematically in FIG. 23) may be used in which an imaged voxel is comprised of two tissue types: one in which tracer reaches diffusive equilibration rapidly (with concentration C^(r)), and one in which it reaches equilibrium slowly (with concentration C^(s)): Cd(t)=vsCd^(s)+(1−vs)Cd^(r)(t). (11)
The factors of 1−vs and vs here ensure detailed balance amongst the compartments. kb is the binding rate due to hypoxia and keq represents the equilibration rate in the regions of slow-equilibration. This may be on the order of (0.1→1) hr-^1 when equilibration is driven by diffusion; see Eq. (2).
To distinguish kb and Keq in k3, voxel-scale k3 values were arranged into bins based on distribution volume values. […]

[2] = in most tissue; FAZA and similarly sized molecules; cited from earlier work

## O=[N+]([O-])c1nccn1[C@H]1O[C@H](CF)[C@@H](O)[C@@H]1O [FAZA, fluoroazomycinarabinoside]
[1]; all twenty patients, standard deviation 0.29 hrs^−1 across patients
  mean (population-averaged) equilibration rate keq in slow-equilibrating regions: 0.44 h⁻¹ and ~0.44 ± 0.29 h⁻¹
[1]; patient 1, fit of voxel-scale Keq to Eq. (18)
  equilibration rate keq: 0.45 h⁻¹
[1]; patient 2, fit of voxel-scale Keq to Eq. (18)
  equilibration rate keq: 0.52 h⁻¹
[1]; resected tumour exhibiting abundant apical mucin (FIG. 12 right)
  average distribution volume of tumour: 0.76
[1]; resected tumour exhibiting little mucin (FIG. 12 left)
  average distribution volume of tumour: 0.92
[1]; twenty PDAC patients
  vascular influx rate k1, population average of tumour-scale values: ~0.3 min⁻¹
[2]
  diffusivity D: ~10 μm^2/s
